From patent US5710174A, “Factor XIIIA inhibitor” (Zymo Genetics, Inc., priority 1995, dated 1998)

Experiments:
[1] = Solubility in ethanol / DMSO; format: physicochemical
Factor IX (FIX) = assay: Factor IX inhibition assay; format: biochemical; conditions: up to 100 μM, absorbance at 405 nm
Description: 60 μl buffer, 10 μl of 40 nM FIX, and 10 μl of one of a series of dilutions of ZG-1400a were added to plate wells. The buffer contained 150 mM NaCl, 5 mM CaCl2, 25 mM Tris, pH 8.0, and 0.1% polyethyleneglycol (PEG). The ZG-1400a was prepared in 10% DMSO and tested using half-log dilutions, starting at a final assay concentration of 100 μM and diluting to 1 nM. A negative (no inhibition) control contained 60 μl buffer, 10 μl of 40 nM FIX, and enough DMSO to give a 1% final DMSO concentration.
The test and control wells were incubated approximately 10 min at room temperature. After incubation, approximately 10 μl of a mixture containing 200 nM FX (Walt Kiesel, University of New Mexico), 500 pM FVIII (Novo Nordisk) and 10 μM PCPS (phosphatidylcholine:phosphatidylserine (Sigma) in a 1:1 ratio) was added to each well. Then 10 μl of 1 mM S2765 substrate (Kabi) was added to each well.
In this assay, FIX converts FX to FXa. […] This determination was made by reading absorbance at 405 nm on a ThermoMax microplate reader.

FVIIa = FVIIa inhibition assay; format: biochemical; conditions: up to 100 μM, absorbance at 405 nm
Description: (§1) For the FVIIa, FXa and thrombin inhibition assays described below, an inhibition assay buffer containing 50 mM Tris, 5 mM CaCl2, 150 mM NaCl, 0.1% Tween 20, and 0.1% BSA (albumin, bovine, Sigma fraction V (Sigma)) at about pH 8.0 was used 2. For each of the inhibition assays, the total reaction volume was 100 μl and the assays were performed in 96-well plates.
For the FVIIa inhibition assay, about 30 μl of inhibition assay buffer, 25 μl of 20 nM recombinant FVIIa (Walt Kiesel, University of New Mexico), and 10 μl of one of a series of dilutions of ZG-1400a were added to plate wells. The ZG-1400a was prepared in 10% DMSO and tested using half-log dilutions, starting at a final assay concentration of 100 μM and diluting to 1 nM. A negative (no inhibition) control contained 30 μl inhibition assay buffer, 25 μl of 20 nM FVIIa, and enough DMSO to give a 1% final DMSO concentration.
The test and control wells were incubated for about 10 min at room temperature. After incubation, 25 μl of 20 nM tissue factor (Walt Kiesel, University of New Mexico) was added to the wells and incubated for a second 10 min period at room temperature. […]
(§2) This determination was made by reading absorbance at 405 nm on a ThermoMax microplate reader.

thrombin = assay: Thrombin inhibition assay; format: biochemical, bovine; conditions: up to 100 μM, absorbance at 405 nm
Description: as §1
About 30 μl inhibition assay buffer, 50 μl of 2 μg/ml thrombin (bovine, Enzyme Research Labs), and 10 μl of one of a series of dilutions of ZG-1400a were added to plate wells. The ZG-1400a was prepared in 10% DMSO and tested using half-log dilutions, starting at a final assay concentration of 100 μM and diluting to 1 nM. A negative (no inhibition) control contained 30 μl inhibition assay buffer, 50 μl of 2 μg/ml thrombin, and enough DMSO to give a 1% final DMSO concentration.
The test and control wells were incubated for about 10 min at room temperature. After the incubation period, 20 μl of 1 mM SPECTROZYME TH (H-D-hexahydrotyrosyl-L-alanyl-L-arginine-p-nitroanilide-diacetate salt, American Diagnostica, Inc., New York, N.Y.) was added to each well.
as §2

## CC=CCC=CCCC(=O)C1OC1C(N)=O (stereo not shown) [Cerulenin, 2,3-epoxy-4-oxo-7,10-dodecadienamide]
[1]
  solubility: soluble in ethanol, but not DMSO

## C[C@@H]1CCC/C=C\C(=O)Cc2cc(O)cc(O)c2C(=O)O1 [ZG-1400, R(-) enantiomer of cis-resorcylide]
Factor IX (FIX)
  inhibition of FIX activity: Not even the highest concentration of ZG-1400a assayed (100 μM) inhibited FIX activity
FVIIa
  inhibition of FVIIa activity: not even the highest concentration of ZG-1400a assayed (100 μM) inhibited FVIIa activity
thrombin
  inhibition of thrombin activity: not even the highest concentration of ZG-1400a assayed (100 μM) inhibited thrombin activity
